The record followed here is ChEMBL document CHEMBL4007425, “Drug Repurposing of Histone Deacetylase Inhibitors That Alleviate Neutrophilic Inflammation in Acute Lung Injury and Idiopathic Pulmonary Fibrosis via Inhibiting Leukotriene A4 Hydrolase and Blocking LTB4 Biosynthesis” (J Med Chem, 2017).

As usually defined, the pIC50 is the IC50 on a negative log10 scale, so that one unit is a factor of ten. As a reminder, the ΔTm is the shift of the melting midpoint relative to a reference. One may read the inhibition as how much of the control response was suppressed.

Data set [1] has as its target T1, Leukotriene A-4 hydrolase (Homo sapiens, UniProt P09960).
T1 sequence (P09960 whole entry): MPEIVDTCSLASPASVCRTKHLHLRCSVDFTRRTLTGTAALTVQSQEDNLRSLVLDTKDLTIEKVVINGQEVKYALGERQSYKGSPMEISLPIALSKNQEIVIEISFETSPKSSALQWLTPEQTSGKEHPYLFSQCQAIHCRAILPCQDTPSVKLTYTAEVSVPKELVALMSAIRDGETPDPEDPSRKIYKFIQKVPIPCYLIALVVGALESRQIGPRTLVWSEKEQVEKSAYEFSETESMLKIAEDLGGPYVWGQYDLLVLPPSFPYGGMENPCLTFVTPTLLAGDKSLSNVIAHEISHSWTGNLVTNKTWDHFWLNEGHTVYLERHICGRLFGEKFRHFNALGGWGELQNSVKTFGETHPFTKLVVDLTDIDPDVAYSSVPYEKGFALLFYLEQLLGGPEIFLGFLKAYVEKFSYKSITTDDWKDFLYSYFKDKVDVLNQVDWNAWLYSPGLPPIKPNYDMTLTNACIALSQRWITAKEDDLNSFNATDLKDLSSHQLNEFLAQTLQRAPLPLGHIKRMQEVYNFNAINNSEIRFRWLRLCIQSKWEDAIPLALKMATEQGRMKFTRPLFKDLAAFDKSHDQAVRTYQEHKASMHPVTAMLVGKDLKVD
The data set is described as follows: Inhibition of recombinant human LTA4H Epoxide Hydrolase expressed in Escherichia coli BL21 (DE3) pLysS preincubated for 10 mins followed by addition of LTA4 as substrate measured after 15 mins by reverse-phase HPLC analysis.

The target of data set [2] is T1, Leukotriene A-4 hydrolase. The experiment in a line: Inhibition of recombinant human LTA4H aminopeptidase activity expressed in Escherichia coli BL21 (DE3) pLysS assessed as formation of p-NA from Ala-p-NA preincubated for 10 mins followed by substrate addition measured after 10 mins. Format: ADME.
Data set [3] concerns the target T2, Leukotriene A-4 hydrolase (Homo sapiens) (UniProt P09960).
T2 sequence (whole entry): T1 sequence (P09960 whole entry)
Description: Binding affinity to recombinant human LTA4H hydrolase assessed as change in melting temperature at 50 uM by SYPRO orange dye-based thermofluor assay

For data set [4], the target named is T2, Leukotriene A-4 hydrolase (Homo sapiens). The settings on record: at 10 µM.
Description: Inhibition of recombinant human LTA4H Epoxide Hydrolase expressed in Escherichia coli BL21 (DE3) pLysS at 10 uM preincubated for 10 mins followed by addition of LTA4 as substrate measured after 15 mins by reverse-phase HPLC analysis
Data set [5] addresses T3, Leukotriene A-4 hydrolase (LTA4H) aminopeptidase activity (Homo sapiens, UniProt P09960).
T3 sequence (P09960 whole entry): T1 sequence (P09960 whole entry)
The data set is described as follows: Inhibition of recombinant human LTA4H aminopeptidase activity expressed in Escherichia coli BL21 (DE3) pLysS assessed as formation of p-NA from Ala-p-NA at 10 uM preincubated for 10 mins followed by substrate addition measured after 10 mins.

Data set [6] deals with T2, Leukotriene A-4 hydrolase (Homo sapiens). To be noted: 10 uM.
The test system of data set [7] is Mus musculus. The experiment in a line: Anti-inflammatory activity in BLM-induced C57BL/6 mouse model of acute lung neutrophilic inflammation assessed as reduction in number of neutrophils in BALF at 30 mg/kg, ip qd for 7 days post BLM challenge measured on day 7. The format is functional, organism-based.
The species named for data set [8] is Mus musculus. The settings on record: C57BL/6, at 25 mg/kg.
Description: Inhibition of LTB4 biosynthesis in LPS-induced C57BL/6 mouse model of acute lung injury BLAF at 25 mg/kg, ip by ELISA
The subject of data set [9] is Mus musculus. The data set is described as follows: Anti-inflammatory activity in LPS-induced C57BL/6 mouse model of acute lung injury assessed as reduction in pathological changes at 25 mg/kg, ip and co-treated with ((2S,3R)-3-amino-2-hydroxy-4-phenylbutanamido)-4-methylpentanoic acid pretreated for 1 hr followed LPS challenge measured after 24 hrs by hematoxylin and eosin staining based microscopy. Format: functional, organism-based.

pIC50: −log10 of the molar value. Active and inactive are the calls of the source. The rule behind the calls is not given here.

For the compound `O=C(CCCCCCC(=O)Nc1ccc([C@H]2O[C@@H](CSc3nc(-c4ccccc4)c(-c4ccccc4)o3)C[C@@H](c3ccc(CO)cc3)O2)cc1)NO` [TUBACIN], the pIC50 in data set [1] and in data set [2] was less than 5.00 throughout. Also, in data set [3], the ΔTm came out at 0.34 °C. Besides, the inhibition in [4] was greater than 50%. Moreover, the inhibition at 10 min, 10 µM in [5] (probe Ala-p-NA) was greater than 50%.
Consider `CCCC(CCC)C(=O)O` [VALPROATE SODIUM], for which the pIC50 in data set [1] and in data set [2] was less than 5.00 each time. In addition, the ΔTm in data set [3] amounted to 0.36 °C. Besides, the inhibition in data set [4] was greater than 50%. In addition, in data set [5] (probe Ala-p-NA), the inhibition at 10 min, 10 µM is greater than 50%.
In the case of `CCCCc1nc2cc(/C=C/C(=O)NO)ccc2n1CCN(CC)CC` [PRACINOSTAT], the pIC50 in data set [1] and in data set [2] was less than 5.00 each time. Further, in data set [3], the ΔTm came to 0.31 °C. In data set [4], this compound had an inhibition greater than 50%. In addition, in data set [5], the inhibition at 10 min, 10 µM was greater than 50%.
For `Nc1ccccc1NC(=O)c1ccc(CNc2nccc(-c3cccnc3)n2)cc1` [MOCETINOSTAT], the pIC50 in data set [1] and in data set [2] was less than 5.00 in each case. Further, the ΔTm in [3] was -0.33 °C. The inhibition in [4] was greater than 50%. The inhibition at 10 min, 10 µM in [5] (probe Ala-p-NA) was greater than 50%.
Regarding `Nc1ccccc1NC(=O)c1ccc(CNC(=O)OCc2cccnc2)cc1` [ENTINOSTAT], the pIC50 in data set [1] and in [2] was less than 5.00 each time. Besides, the ΔTm in [3] was determined as 0.39 °C. In data set [4], this compound showed an inhibition greater than 50%. Also, in data set [5] (probe Ala-p-NA), the inhibition at 10 min, 10 µM was greater than 50%.
On to `CC(/C=C/C(=O)NO)=C\[C@@H](C)C(=O)c1ccc(N(C)C)cc1` [TRICHOSTATIN], for which the pIC50 in data set [1] and in [2] was less than 5.00 throughout. For the same compound, the ΔTm in data set [3] worked out at 0.17 °C. The same compound registered an inhibition in data set [4] greater than 50%. Besides, in data set [5] (probe Ala-p-NA), the inhibition at 10 min, 10 µM is greater than 50%.
Take `O=C(CCCCCN1C(=O)c2cccc3cccc(c23)C1=O)NO`: the pIC50 is less than 5.00 in data set [1] and 5.36 in data set [2]. In addition, in [3], the ΔTm was -0.68 °C. In addition, the inhibition in [4] was greater than 50%. In data set [5], the inhibition at 10 min, 10 µM was greater than 50%.
In the case of `CN(CCCOc1ccc(Cc2ccccc2)cc1)CCC(=O)O`, in data set [6], the ΔTm turned out to be 2.95 °C.
Turning to `Cc1[nH]c2ccccc2c1CCNCc1ccc(/C=C/C(=O)NO)cc1` [PANOBINOSTAT], the pIC50 in data set [1] and in data set [2] was less than 5.00 throughout. In addition, the ΔTm in data set [3] was 0.12 °C. The inhibition in data set [4] was greater than 50%. Moreover, the inhibition at 10 min, 10 µM in [5] (probe Ala-p-NA) was greater than 50%.
With `CCN(CC)Cc1ccc2cc(COC(=O)Nc3ccc(C(=O)NO)cc3)ccc2c1` [GIVINOSTAT], the pIC50 in data set [1] and in data set [2] was less than 5.00 throughout. For the same compound, in [3], the ΔTm came out at 0.19 °C. The compound also came in with an inhibition in data set [4] greater than 50%. The inhibition at 10 min, 10 µM in [5] (probe Ala-p-NA) was greater than 50%.
In the case of `O=C(CCCCCCNC(=O)c1cnc(N(c2ccccc2)c2ccccc2)nc1)NO` [RICOLINOSTAT], the pIC50 in data set [1] and in data set [2] was less than 5.00 throughout. Also, the ΔTm in data set [3] turned out to be 0.55 °C. In [4], the inhibition was greater than 50%. Moreover, in [5] (probe Ala-p-NA), the inhibition at 10 min, 10 µM was greater than 50%.
As for `CN(C)Cc1ccc(S(=O)(=O)n2ccc(/C=C/C(=O)NO)c2)cc1` [RESMINOSTAT], the pIC50 in [1] and in [2] was less than 5.00 throughout. Further, in [3], the thermal shift (ΔTm) is 0.44 °C. The compound further yielded an inhibition in data set [4] greater than 50%. Besides, in data set [5] (probe Ala-p-NA), the inhibition at 10 min, 10 µM was greater than 50%.
As for `CN(C)Cc1c(C(=O)NCCOc2ccc(C(=O)NO)cc2)oc2ccccc12` [ABEXINOSTAT], the pIC50 in [1] and in [2] was less than 5.00 in each case. Also, the ΔTm in [3] was 0.24 °C. The inhibition in [4] was greater than 50%. Further, the inhibition at 10 min, 10 µM in [5] (probe Ala-p-NA) is greater than 50%.
For the compound `COC(=O)c1ccc2c(c1)NC(=O)/C2=C(\Nc1ccc(N(C)C(=O)CN2CCN(C)CC2)cc1)c1ccccc1`, the result with Mus musculus [7] was Active.
On to `Cn1cc(CNCC2CCN(c3ncc(C(=O)NO)cn3)CC2)c2ccccc21` [QUISINOSTAT], for which the pIC50 in data set [1] and in data set [2] was less than 5.00 throughout. The ΔTm in [3] was 0.52 °C. The inhibition in data set [4] is greater than 50%. Also, in data set [5] (probe Ala-p-NA), the inhibition at 10 min, 10 µM was greater than 50%.
Regarding `O=C(/C=C/c1cccc(S(=O)(=O)Nc2ccccc2)c1)NO` [BELINOSTAT], the pIC50 in data set [1] and in data set [2] was less than 5.00 in each case. Further, the ΔTm in data set [3] was 0.11 °C. The inhibition in [4] is greater than 50%. Moreover, the inhibition at 10 min, 10 µM in [5] (probe Ala-p-NA) is greater than 50%.
Regarding `CC(C)C[C@H](NC(=O)[C@@H](O)[C@H](N)Cc1ccccc1)C(=O)O`, the inhibition entry in the data set listed under Mus musculus [8] was “Active”. Further, the outcome in the data set with Mus musculus [9] was Active.
As to `C#Cc1cccc(Nc2ncnc3cc(OC)c(OCCCCCCC(=O)NO)cc23)c1` [CUDC-101], the pIC50 in [1] and in [2] was less than 5.00 in each case. Moreover, the ΔTm in [3] is 0.3 °C. Also, in data set [4], the inhibition was greater than 50%. Further, the inhibition at 10 min, 10 µM in data set [5] was greater than 50%.
